Assay: Human HepG2 cell viability assay in 384 well format
Assay type: toxicity, cell-based
Set-up: dose 125 nL, time 70.5 hour; concentration not given beside the values
Conditions: HepG2 cells, read-out: Inhibition

| Compound | cytotoxicity at 70.5 h [%] |
| --- | --- |
| CCOCC1CN(S(=O)(=O)Cc2ccccc2)Cc2nccn2C1 (stereo not given) | -3.22 |
| Cc1csc(N2CCN(C(=O)CCC(=O)c3ccc(C)s3)CC2)n1 | 7.78 |
| CC(C)Nc1ncnc2c1CCNCC2 | 2.95 |
| Cc1nc(C(=O)N2CCCCC2c2ccc(CN(C)C)cc2)c(C)o1 (stereo not given) | -4.13 |
| Cc1noc(Cl)c1CCC(=O)N1CCN(Cc2ccncc2)CC1 | -4.95 |
| CCCC(=O)NCCCn1ncc2c(C)cccc21 | -12.9 |
| Cc1nn(CCO)c(C)c1CNC1CCCCc2ccccc21 (stereo not given) | 3.84 |
| CS(=O)(=O)NCCCNC(=O)c1cnc(-c2ccsc2)s1 | -6.18 |
| Cn1cc(CN(C(=O)c2ccc(O)c(Cl)c2)C2CC2)cn1 | -14.8 |
| CC(=O)N1CCN(C(=O)C(C)OCC(F)(F)F)CC1 (stereo not given) | 33.2 |
| CCN(CC1CCOCC1)C(=O)C1CC(=O)N(Cc2cccnc2)C1 (stereo not given) | -5.23 |
| O=C(NCCNc1cnccn1)N1CC=C(c2ccccc2)CC1 | -8.49 |
| Cc1nnc(CN(C)CC(=O)NC(C)(C)c2ccc(F)cc2)n1C | -6.19 |
| c1cncc(OC[C@@]23CCO[C@@H]2CCN(Cc2cccs2)C3)c1 | -100 |
| O=C(COC1CCCCC1)Nc1ccn(CCc2ccncc2)n1 | -7.83 |
| COCCN(Cc1noc(-c2ccc(OC)cc2)n1)C1CC1 | -0.841 |
| COCCN1CCCn2c(nc(CNC(=O)COC)cc2=O)C1 | -2.45 |
| CCN(C)C[C@@H]1CN(Cc2cnc3c(S(C)(=O)=O)cnn3c2)C[C@@H]1CO | 1.07 |
| O=C(NC1CC1)c1cc2c(s1)CCN2C(=O)C1CC1 | -7.29 |
| Cn1c(N)nnc1SCC1OCCc2ccccc21 (stereo not given) | 6.39 |
| CC(C)(C)NC(=O)NC(=O)CN1C=Nc2ccccc2S1(=O)=O | -8.6 |
| CC(C)Cn1ncc(C(=O)NS(=O)(=O)c2ccccc2)c1C1CC1 | -8.45 |
| O=C(NCCNc1ccccn1)N1CCSCC1 | -5.96 |

| Compound | cytotoxicity at 70.5 h [%] |
| --- | --- |
| COCc1ccc(C(=O)NCCCNc2ccc(C(F)(F)F)cn2)cc1 | -11.2 |
| CN(CCO)Cc1nnc(C2CCN(C(=O)c3cccn3C)CC2)n1C | -5.93 |
| Cc1ccc(NC2CCN(C(=O)c3cccn3C)CC2)nn1 | 32.5 |
| CC(=O)N1CCC2(CC1)CN(C(=O)c1cccnc1)c1ccc(F)cc12 | -3.83 |
| Cc1ccc(S(=O)(=O)Nc2ccc(N3CCOCC3)cn2)cc1 | -3.69 |
| O=C(CCc1cccc(F)c1F)N1CCCC(n2cncn2)C1 (stereo not given) | -6.22 |
| CC1CCN(c2ncc(-c3ccccc3F)c(-c3nccn3C)n2)CC1 | -2.25 |
| CCNC(c1ccc(CC)cc1)c1cccnc1 (stereo not given) | 7.31 |
| Cc1cnccc1CN1CCN(C)C2(CCC(=O)N(CC3CC3)CC2)C1 (stereo not given) | -1.45 |
| CC(C)(C)NC(=O)COc1ccc(CNCc2ccccn2)cc1 | 25.3 |
| CC(C)N1CCN(C)C2(CCN(C(=O)c3ccnnc3)CC2)C1=O | -4.95 |
| O=C(NCCCn1nc2ccccn2c1=O)NCc1ccccc1 | -0.996 |
| Cc1cnn(C2CCCN(C(=O)c3c(C)oc4nc[nH]c(=O)c34)C2)c1 (stereo not given) | -9.75 |
| CCCOC(C)C(=O)N1CCC(O)(c2ccc3nc(C)ccc3c2)CC1 (stereo not given) | -3.14 |
| NC(=O)C(CNC(=O)Cc1ccsc1)Cc1ccc(F)cc1 (stereo not given) | -3.39 |
| CCC(C)N(Cc1ccncc1)Cc1ccc(-n2cccn2)cc1 (stereo not given) | -5.94 |
| Cc1cccc(C(=O)NC2CCN(c3cnn(C)c3)C2=O)n1 (stereo not given) | 12.5 |
| CC(=O)N1CCCC(Cc2nccn2C)C1 (stereo not given) | -5.45 |
| COc1cccc2c1OCCCN(Cc1ccc(C(N)=O)c(=O)[nH]1)C2 | -8.27 |
| c1nc(N2CCOCC2)sc1-c1cncn1CCCN1CCCCC1 | -4.2 |
| COc1cccc(F)c1-c1nc2c([nH]1)c(C1CC1)nn2C | 10.5 |
| O=S(=O)(C1CC1)N1CCc2ncc(Cn3cncn3)n2CC1 | -3.06 |
| O=C(NC1CCCc2c1[nH]c1ccc(F)cc21)c1n[nH]c2c1CCC2 (stereo not given) | 26.4 |

| Compound | cytotoxicity at 70.5 h [%] |
| --- | --- |
| CCc1noc(CSc2n[nH]c(-c3ccccn3)n2)n1 | -3.21 |
| CC(C)CNC(=O)N1C[C@@H]2CCCN[C@@H]2C1 | -8.84 |
| COc1ccc(N2Cc3nc(=O)[nH]n3C2=O)cc1 | 6.34 |
| Cc1cccc(N2CCC3(CCN(Cc4ccccn4)CC3)CC2)n1 | -9.07 |
| Cc1ccc(N2CCC3(CCCN(C(=O)c4cnccn4)C3)C2)nn1 (stereo not given) | 1.5 |
| COc1cc(C2CC(=O)Oc3cc(C)[nH]c(=O)c32)ccc1O (stereo not given) | -18.3 |
| Oc1cc(-c2ccsc2)nc(C2CCN(Cc3cccnc3)CC2)n1 | -5.93 |
| O=C(CCC(=O)Nc1nnc(C2CCCCC2)s1)NCC1CCCO1 (stereo not given) | -12.1 |
| Cc1nc(C(=O)N(C)CC2CCCO2)nn1-c1ccccc1C(C)C (stereo not given) | -5.46 |
| COc1ccc(C(=O)N2CCCS2(=O)=O)cc1 | -5.25 |
| CC(C)c1noc(CCCC(=O)Nc2cccc(F)c2)n1 | 15.5 |
| O=C(c1nnn(-c2ccc(F)cc2)n1)N(CCO)Cc1ccccc1 | -1.48 |
| O=C(O)CC[C@@H]1CN(c2ncccc2F)CC[C@@H]1N1CCOCC1 | -8.92 |
| CC(C)CN1CCN(C(=O)c2cccnc2-n2cncn2)CC1 | 11.2 |
| O=C(C1CCCOC1)N1CCCCc2ccccc21 (stereo not given) | -12.1 |
| O=C1NCC(C(=O)N(Cc2ccc(C(F)(F)F)cc2)C2CC2)N1 (stereo not given) | 23.5 |
| CS(=O)(=O)c1cc(Cl)cnc1C1CCN(C(=O)C2CCOCC2)CC1 | 9.7 |
| CC(=O)N1CCC(c2c(CN(C)C)cnc3cc(C)nn23)CC1 | 15.7 |
| c1cc2cc[nH]c2c(CC2CN(Cc3cscn3)C2)n1 | -3.59 |
| CCc1nc(C2CCCN(c3nccc(C)n3)C2)no1 (stereo not given) | -12.5 |
| Cc1cc(C)c(-c2nc(-c3c(C)ncc4c3CCNC4)no2)o1 | -11.5 |
| CC(C)(C(=O)NCC(=O)NCc1ccccc1)c1ccccc1F | 3.35 |
| Cc1cc(C)n(C2CCCN(C(=O)Cn3ccc(=O)n(C)c3=O)C2)n1 (stereo not given) | -7.57 |

| Compound | cytotoxicity at 70.5 h [%] |
| --- | --- |
| CCn1cc(-c2cc(C(F)(F)F)n(CCCN)n2)cn1 | 1.14 |
| O=c1cc2c(nn1CN1CCOCC1)CCC2 | -3.75 |
| CC(C)c1noc(CN2CCC(c3ccnn3CCO)CC2)n1 | -3.73 |
| CC(C)CNc1nc2c(cc1C(=O)NCC1CC1)CCNCC2 | 24.9 |
| Cc1ccc(CN2CC(O)CN(C(=O)C3CC3)CC2=O)cc1 (stereo not given) | -5.26 |
| CN(C)C(=O)Cc1nc(CN2CCCCC2Cn2cccn2)cs1 (stereo not given) | 37 |
| COCCN(Cc1cccs1)C(=O)C1CCCN(C(N)=O)C1 (stereo not given) | 14.1 |
| O=C(NC1CC1)c1ccc(SCc2cscn2)cc1 | -9.79 |
| CCCS(=O)(=O)N1CCN(c2ccnc(N3CCCCC3)n2)CC1 | -8.56 |
| Nc1cc(CCCNC(=O)NC2CCCC2)nn1-c1ccccc1 | -102 |
| COc1ccc(CN2CCC3(CCCN(C)C3=O)C2)c(Cl)c1OC (stereo not given) | 0.156 |
| Cc1cc(N2CCCC(c3nncn3C3CC3)C2)ncn1 (stereo not given) | -2.44 |
| Cc1nn(C)c2nc(N3CCC(C(O)Cc4ccccc4)CC3)sc12 (stereo not given) | -2.11 |
| CCCc1cc(C(=O)N2C[C@H]3CC=C(C)C[C@H]3C2)ccn1 | -8.24 |
| CNS(=O)(=O)CC(=O)N1CCCc2cc(Br)ccc21 | -88.8 |
| CCN(CC1COc2ccccc2O1)C(=O)NCCCn1cncn1 (stereo not given) | -10.8 |
| O=C(c1nc(=O)[nH][nH]1)N1CCC2(CCCCC2)C1 | 20.2 |
| O=C(O)c1ccc2[nH]cc(CN3CCOCC3)c2c1 | 2.68 |
| CCN1C[C@H]2CCN(C(=O)Cc3cccc(OC)c3)CC[C@H]2S1(=O)=O | -8.13 |
| O=C(CN1CCc2cncnc2C1)NC1CCCCNC1=O (stereo not given) | 0.54 |
| Cc1cn(CC(=O)N(C)Cc2cccc3ncccc23)c(=O)[nH]c1=O | 6.82 |
| COCc1cc(N(CC(F)F)C2CC2)n2ncnc2n1 | -5.91 |
| CN1CCN(CC(NCc2cccc(O)c2)c2ccccc2)CC1 (stereo not given) | -5.45 |

| Compound | cytotoxicity at 70.5 h [%] |
| --- | --- |
| Oc1nnc(-c2ccccc2)c2sc(N3CCCCC3)nc12 | 0.482 |
| O=C(CCc1nc2ccccc2[nH]1)N1CCCC(n2cccn2)C1 (stereo not given) | 2.61 |
| CNC(=O)C1Cn2ccnc2C2(CCN(Cc3ccncc3)CC2)O1 (stereo not given) | -10.9 |
| Cc1ccc2c(c1)C(NCc1nccn1Cc1ccccc1)CCCO2 (stereo not given) | -13.4 |
| CN(CC1CCN(CCO)CC1)CC(O)c1ccc(F)cc1 (stereo not given) | -5.05 |
| Cc1cnc(N2CCOCC3(CCN(c4ccccn4)C3)C2)nc1 (stereo not given) | -9.64 |
| COc1ccc(F)c(CN(CCCn2ccnc2)Cc2ccc(C)s2)c1 | 45.5 |
| CCN1CCn2c(C)cnc2C12CCN(C(=O)C(C)C)CC2 | -15.2 |
| CC1=N[C@@]2(CC[C@@H]3CN(C(=O)NCCc4ccccc4)C[C@@H]32)C(=O)N1 | 7.76 |
| CCCOCC(=O)NC1CCc2nc(C)cn2C1 (stereo not given) | -2.67 |
| O=C(c1cscn1)N1CCN2C[C@H](OCc3cccnc3)C[C@H]2C1 | 20 |
| Cc1cc2nc(O)c(O)nc2cc1S(=O)(=O)NC1CC1 | -12.3 |
| CC(=O)Nc1ccc(CN2CCOC2=O)cc1 | -9.56 |
| O=C(c1cc(C2CCCC2)no1)N1CC(O)C1 | -3.97 |
| CC(NC(=O)N(C)Cc1ccsc1)c1nncn1C (stereo not given) | -2.73 |
| Cn1c(N)nnc1SCc1c(F)cccc1Br | -3.61 |
| O=C(COCC1CC[C@H]2[C@H](CCN2c2ncccn2)O1)N1CCCC1 (stereo not given in full) | -6 |
| Cc1nc(C)c(C(=O)N2CCCC(C(=O)c3nccn3C)C2)s1 (stereo not given) | -2.4 |
| COc1ccc(NC(=O)CCC2CCCN(Cc3ncon3)C2)cc1Cl (stereo not given) | -7.33 |
| O=C(NC1CCS(=O)(=O)c2ccccc21)c1cccs1 (stereo not given) | -7.77 |
| COc1ccc(CN(C)c2nccc(-c3cn(C)nc3C)n2)cc1 | 13.2 |
| CS(=O)(=O)N[C@@H]1CCO[C@]2(CCN(C(=O)c3cnccn3)C2)C1 | -5.97 |
| CCN(CC1CCCO1)C(=O)Nc1cc(C)ccc1S(C)(=O)=O (stereo not given) | -1.66 |
